According to patent US20130131146A1, “Compositions and Methods for Treating Pulmonary Conditions” (THE JOHNS HOPKINS UNIVERSITY, priority 2010, published 2013):
Entries after “also recorded” stand apart in the source; their conditions may differ. Like-named read-outs stand apart in the source and are kept apart here.

Tests used:
membrane ceramide = test: ZO-1/ceramide co-immunostaining and confocal imaging of CFBE41o-WT-CFTR cells; assay type: cell-based, human; details: 6 hrs
[1] = test system: chronic-CS induced lung inflammation and emphysema; test: Chronic cigarette smoke (24 weeks) induced lung inflammation and emphysema in C57BL/6 mice; assay type: in vivo
Excerpt: Scale: white/black bar-50 μm.

neutral SMase = details: at 5 mM GSH; cited from earlier work
IL-8 = IL-8 secretion ELISA in CFBE41o-WT-CFTR cells; assay type: cell-based, human; details: 5 mM CD, 24 hours; p<0.001
NFκB = NFκB immunostaining of CFBE41o-WT-CFTR cells after lipid-raft CFTR depletion; assay type: cell-based, human; details: 5 mM CD, 6 hrs, ± 10 ng/ml Pa-LPS
lipid-raft CFTR = test: Intratracheal CD treatment of Cftr+/+ mice, lung immunofluorescence staining; assay type: in vivo, C57BL/6 mice; details: CD 75 μg/mouse i.t. for 3 days
Method: All animal experiments were carried out in accordance with the Johns Hopkins University (JHU) Animal Care and Use Committee (ACUC) approved protocols. Age-, weight-, and sex-matched (24 wk old), B6-12956-Cftr^−/− (Cftrtm^1Kthc-TgN(^FABPCFTR)) (30, 31) and Cftr^+/+ inbred mice strains (procured from Case Western Reserve University Animal Resource Center, Cleveland, Ohio; n=3-5 for all experiments). The changes in cytokine and inflammatory markers between Cftr^+/+and Cftr^−/− mice were verified by multiple (2, 3) experiments, and representative data are shown. All mice were housed in a controlled environment and pathogen-free conditions. […] Mice were sacrificed 24 h after drug treatment, and the bronchoalveolar lavage fluid (BALF) was collected for cytokine ELISAs. The lungs were fixed in 10% buffered formalin phosphate (Fisher Scientific, Pittsburgh, Pa.), paraffin embedded, and cut into longitudinal sections (5 μm thick) on glass slides for immunostaining. For depletion of membrane-CFTR in murine lungs, 72-h i.t. CD treatment was used, and lung tissues were collected as above. The mice (three to four mice per group, 8 to 10 wk old) were exposed to cigarette smoke (CS) using the TE-2 cigarette smoking machine (Teague Enterprises, Davis, Calif.). […] An average total particulate matter of 150 mg/m^3 was recorded in real time during the smoking protocols. […] The human lung tissue samples from Gold stage I (mild, forced expiratory volume [FEV1]% predicted>80%), Gold stage 11 (moderate, FEV1% predicted=˜50-80%), and Gold stage III-IV (severe/very severe, FEV1% predicted <50%) nontumor COPD (with FEV1/forced vital capacity [FVC] ratio of <70%) and Gold stage 0 (at risk) control subjects (procured from Lung Tissue Research Consortium [Bethesda, Md.], National Heart, Lung and Blood Institute, National Institutes of Health) were used for quantification and localization of indicated proteins by immunostaining All the subjects were stable, and Gold I-IV subjects had emphysema. […]

lipid-raft Fas and CFTR = test: Immunoblotting of lung lipid-raft protein fraction from CD treated and/or sub-chronic CS exposed Cftr+/+ mice; assay type: in vivo; details: CD i.t. 2×50 μg
[2] = test system: Pa-LPS-induced lung injury; assay type: in vivo, mice
ZO-2 = test: Lipid-raft ZO-2 expression by Western blotting in CFBE41o- and CFBE41o-WT-CFTR cells; assay type: cell-based, human
NFκB promoter = test: NFκB luciferase reporter assay in CFBE41o-wt-CFTR and CFBE41o- cells; assay type: cell-based, human; details: CFBE41o-wt-CFTR cells; 10 ng/ml TNFα, 50 μM FB1, 12 hours; p<0.05; only in the presence of cell surface CFTR
Excerpt: The BALF and cell culture supernatants (n=3-5) were quantified in triplicate for mouse IL-6, IL-1β, or human IL-8 using ELISA kits (R&D Systems, or eBioscience, San Diego, Calif.) following the manufacturer's instructions. MPO levels in neutrophil culture supernatant or mouse BALF were similarly quantified using the MPO ELISA kit (Hycult Biotechnology, Uden, The Netherlands). For reporter assays, CFBE41o-WT-CFTR or CFBE41o-cells were transfected with NF-KB firefly luciferase promoter (pGL2) and renilla luciferase (pRLTK) control using Lipofectamine 2000 (Invitrogen). Renilla luciferase was used as an internal control for normalization of DNA and transfection efficiency of reporter constructs. […] Data were normalized with internal renilla luciferase control for each sample, and the changes in reporter activities with CFTR overexpression were calculated.

[3] = Cftr+/+ mice, Pa-LPS i.t. 12 h, then drug i.t. 24 h
[4] = Cftr-/- mice, Pa-LPS i.t. 12 h, then drug i.t. 24 h

Molecule: TNFα
- CD induced membrane ceramide accumulation (membrane ceramide; TNFα 10 ng/ml with CD 5 mM): depletes

Molecule: CCCCCCCCCC(=O)N[C@H](CN1CCOCC1)[C@H](O)c1ccccc1 [D-PDMP]
- CS induced inflammation and emphysema (H&E) ([1]; chronic-CS 24 weeks, 50 μg/mouse): significant decrease
- chronic-CS induced LacCer-accumulation (lung immunostaining) ([1]; chronic-CS 24 weeks, 50 μg/mouse, p<0.05): significantly downregulated
- alveolar space enlargement (alveolar diameter, morphometric analysis) ([1]; chronic-CS 24 weeks, p=0.0016): significantly controlled
- BALF IL-6 levels ([1]; chronic-CS exposed mice, n=3, p=0.009): rescued to basal levels
- chronic-CS induced macrophage (F4/80-positive cells) infiltration in BALF ([1]; flow cytometry, p<0.01): significantly controls

Molecule: N[C@@H](CCC(=O)N[C@@H](CS)C(=O)NCC(=O)O)C(=O)O [Glutathione]
- inhibition of neutral SMase (neutral SMase): greater than 95%

Molecule: methyl-β-cyclodextrin [CD]
- IL-8 chemokine levels (IL-8): significantly induces
- CFTR control of NFκB signaling (NFκB): abrogates its control of NFκB signaling
- NFκB activity (lung immunofluorescence) (lipid-raft CFTR): induces
- expression of lipid-raft marker (ZO-2) (lipid-raft CFTR): significant increase
- neutrophil chemotaxis (NIMPR14) (lipid-raft CFTR): induces
- lipid-raft CFTR levels (lipid-raft Fas and CFTR): decrease
- lipid-raft Fas expression (lipid-raft Fas and CFTR): increases
- ceramide accumulation on the cell surface and lipid rafts (membrane ceramide; CD 5 mM): increases

Molecule: CN(C)CCC=C1c2ccccc2CCc2ccccc21 [AMT, Amitriptyline]
- protection against Pa-LPS-induced lung injury ([2]; Cftr+/+ mice, FIG. 4B legend): relatively less protective
- Pa-LPS-induced IL-1b secretion (BALF) [2, 3]: unable to rescue
- Pa-LPS-induced IL-6 (BALF) [2, 3]: unable to rescue
- inflammatory cytokines (BALF) ([2]; Cftr-/- mice, FIG. 4B legend): effectively controls
- Pa-LPS-induced IL-1b levels (BALF) [2, 4]: significant decrease
- Pa-LPS-induced IL-6 (BALF) [2, 4]: significant decrease

Molecule: Fumonisin B1 [FB1]
- lipid-raft ZO-2 expression (ZO-2; CFBE41o- cells (no functional CFTR), Pa-LPS 10 ng/ml or FB1 50 μM, 24 h): neither Pa-LPS nor FB1 is able to modulate
- lipid-raft ZO-2 expression (ZO-2; in the presence of WT-CFTR (CFBE41o-WT-CFTR cells)): downregulated
- Pa-LPS-induced IL-10 (BALF) ([2]; Cftr+/+ mice, FIG. 4A): significantly decreases
- Pa-LPS-induced IL-1b secretion (BALF) [2, 3]: very significant decrease
- Pa-LPS-induced IL-6 (BALF) [2, 3]: significantly decreases
- reduction in the Pa-LPS-induced IL-6 levels (BALF) ([2]; Cftr+/+ mice, Pa-LPS i.t. 12 h, then drug i.t. 24 h, p<0.05): 2 fold
- Pa-LPS-induced IL-1b levels (BALF) [2, 4]: unaltered
- Pa-LPS-induced IL-6 (BALF) [2, 4]: decreased; also recorded: modest effect
- TNFα mediated NFκB promoter activity (NFκB promoter): inhibits
